According to US9896474B2, “(3A,9B,10A,13A,14B,17A,20S,22E)-ergosta-5,7,22-trien-3-ol and methods of preparing and using the same” (priority 2014, dated 2018):
Values after ≈ are worked out from the molar mass of the structure shown. Values joined by “and” are separate entries in the source; they are usually repeats but may differ in a detail not shown here. Identical values can stand only once.

What was measured:
[1] = tested on: human lung cancer cells A549; experiment: iCELLigence real-time cell-analyzer (RTCA) growth monitoring, A549; format: cell-based; details: 1.6-100 μg/mL, 48 hrs, FIG. 7
[2] = tested on: human hepatoma cells Hep-g2; experiment: iCELLigence real-time cell-analyzer (RTCA) growth monitoring, Hep-g2; format: cell-based; details: 1.6-100 μg/mL, 48 hrs, FIG. 6
Experimental: 1. Eight-well plate (E-Plate L8) supplied by ACEA Bio (Hangzhou) Co. Ltd. was combined with an iCELLigence real-time cell-analyzer (RTCA). 150 μL of a complete F-12K medium was added to each well and the eight-well plate was placed in an incubator at a temperature of 37° C. and an atmosphere of 5% CO2, and the background data were regulated to 40-130. The compound C310-6 was fully dissolved by dimethyl sulfoxide to concentrations of 100 mg/mL, 50 mg/mL, 25 mg/mL, 12.5 mg/mL, 6.3 mg/mL, 3.1 mg/mL, and 1.6 mg/mL, and then diluted to by the complete F-12K medium obtain working solutions having concentrations of 10 mg/mL, 5 mg/mL, 2.5 mg/mL, 1.25 mg/mL, 0.63 mg/mL, 0.31 mg/mL, and 0.16 mg/mL. Well cultivated human hepatoma cells Hep-g2 were digested by trypsin and diluted into live cell suspensions with a concentration of 4×10^4/mL. Thereafter, 345 μL of the live cell suspension of C310-6 was inoculated to each well of an eight-well plate, and then 5 μL of the working solution was added to each well to enable final concentrations of the C310-6 compound to be 100 μg/mL, 50 μg/mL, 25 μg/mL, 12.5 μg/mL, 6.3 μg/mL, 3.1 μg/mL, and 1.6 μg/mL. An eighth hole was added with the complete F-12K medium containing 1 wt. % of dimethyl sulfoxide as a blank control group, and was displaced into the incubator at 37° C. and 5% CO2 for 48 hrs.

[3] = tested on: human hepatoma cells Hep-g2; experiment: MTT assay on human hepatoma cells Hep-g2; format: cell-based; details: HepG2, 48 hrs, OD 490 nm, read-out: 1050 value (cell viability curve)
Experimental: a. 250 mg of 3-(4,5-dimethylthiazol-2-yl)-2,5-diphenyltetrazolium bromide (MTT) was dissolved by 50 mL of phosphate buffered saline (PBS) having a concentration of 0.01 mol/L and PH=7.45 to yield a MTT solution having a final concentration of 5 mg/mL. The MTT solution was dispensed and protected against light at the temperature of −20° C. after filtration and sterilization.
b. A suspension of single cell line was prepared and inoculated into 96-well plate (cells were diluted to a concentration of 4×10^4/mL by the F-12K basic culture medium, 100 μL diluted cells were added to each well and cultivated at 37° C., 5% CO2 for 20 hrs, each group was provided with 4 parallel samples).
c. The culture medium was removed; and new culture mediums were prepared according to serial concentration of the antitumor drug (C310-6), each well was added with 100 μL of the new culture medium and cells were cultivated for 48 hrs.
d. 20 μL of MTT solution having the concentration of 5 mg/mL was added to each well for incubating the cells for 4 hrs.
e. […]
f. OD values were measured by a microplate reader, λ=490 nm
g. A cell viability curve was charted, 1050 value was calculated to be 14.152 μg/mL, which means that the compound has excellent human hepatoma cells Hep-g2 activity resistance.

H22 liver cancer model = experiment: Antitumor experiment against H22 tumor bearing mice; format: in vivo; details: 10 days; for Net weight variation (g) / Tumor weight: x ± s
Excerpt: Antitumor Experiment of C310-6 Against H22 Tumor Bearing Mice
H22 tumor bearing mice were adopted to observe the effect of the anti-liver cancer of five classes of mixtures.
H22 tumor bearing mouse inoculated with the tumor for 8-13 days and in good condition was killed by dislocation. Body surface of the mouse was disinfected by alcohol. The tumors were separated from the mouse and placed in sterile petri dish containing normal saline in a sterile environment (super clean bench). The tumors were cut into small piece and transferred to a tissue homogenizer, the normal saline was added with a volume ratio of the tumor piece to the normal saline being 1:3, a resulting homogenate was put into a 50 mL sterile centrifuge tube. 0.2 mL of the homogenate was inoculated to right axilla of each C57BL/6 mouse by 1 mL syringe. The tumor cell suspension was prepared in the sterile environment (the super clean bench), and the serial operations from separation of the abdominal dropsy of the tumor to the tumor inoculation were accomplished in 60 min
(§1) Oral agent of C310-6: a certain weight of C310-6 sample was placed in a mortar, and Tween-80 having a volume of 2% of a certain volume of a solvent was added and fully ground. Thereafter, the normal saline was added and fully stirred to form a solution. Solutions having a concentration of the C310-6 sample of 24 mg/mL, 8 mg/mL, and 2.7 mg/mL were prepared.
(§2) Oral agent of CTX: CTX pill was removed from a film and a certain amount of the pill was placed in a mortar. A certain volume of normal saline was added, fully ground, and mixed to prepare a solution having a concentration of CTX to be 3.4 mg/mL.
(§3) 60 experimental mice were divided into 6 groups with each group having 10 mice, a half of the mice being female and another half of the mice being male. The groups are specifically as follows: 1) group administered with a low dose of C310-6 (27 mg/kg), 2) group administered with middle dose of C310-6 (80 mg/kg), 3) group administered with high dose of C310-6 (240 mg/kg), 4) group administered with CTX, 5) model group, and 6) blank control group. The above groups, except the model group and the blank control group, are administered with 0.3 mL of the drugs once a day after the injection of the tumor suspension, and the administration was lasted for 10 days. The model group and the blank control group are administered orally with equal volume of aqua solutions containing 2 v. % of Tween-80 for 10 days.
(§4) The weight and food intake of the mice were weighed and recorded every day, and a net weight of each mouse after tumor removal was calculated at the last time.
(§5) The separated tumor tissue was weighed, and the inhibition rate on the tumor growth was calculated according to the following equation: […]
Data of mice in each group were expressed by and were processed by SPSS software, each group was examined by one-way ANOVA.

[4] = tested on: human lung cancer cells A549; experiment: MTT assay on human lung cancer cells A549; format: cell-based; details: A549 section, 48 hrs, OD 490 nm, read-out: 1050 value (cell viability curve)
Lewis lung cancer model = experiment: Anti-Lewis tumor experiment (Lewis lung cancer bearing mouse); format: in vivo; details: Lewis mice, 10 days; for Net weight variation (g) / Tumor weight: x ± s
Excerpt: The purpose of the experiment was adopting the Lewis tumor bearing mouse model to observe the antitumor effect of C310-6.
Tumor bearing mouse inoculated with the tumor for 8-13 days and in good condition was killed by dislocation. Body surface of the mouse was disinfected by alcohol. The tumors were separated from the mouse and placed in sterile petri dish containing normal saline in a sterile environment (super clean bench). The tumors were cut into small piece and transferred to a tissue homogenizer, the normal saline was added with a volume ratio of the tumor piece to the normal saline being 1:3, a resulting homogenate was put into a 50 mL sterile centrifuge tube. 0.2 mL of the homogenate was inoculated to right axilla of each KM mouse by 1 mL syringe. The tumor cell suspension was prepared in the sterile environment (the super clean bench), and the serial operations from the tumor separation to the tumor inoculation were accomplished in 60 min
as §1, §2
as §3, with “0.2” for “0.3”
as §4, §5
Data of mice in each group were expressed by corresponding data and were processed by SPSS software, each group was examined by one-way ANOVA.

## CC(C)[C@@H](C)/C=C/[C@H](C)[C@@H]1CC[C@@H]2C3=CC=C4C[C@H](O)CC[C@@]4(C)[C@@H]3CC[C@]21C [C310-6, (3α,9β,10α,13α,14β,17α,20S,22E)-ergosta-5,7,22-trien-3-ol]
[1]
  growth of human lung cancer cells A549 (real-time data): inhibited
[2]
  growth of human hepatoma cells Hep-g2 (real-time data): inhibited
[3]
  IC50: 14.2 µg/mL (≈ 35.7 µM)
H22 liver cancer model; 27 mg/kg oral once a day
  Liver transfer rate (%): 0%
  Survival rate (%): 100%
  Tumor inhibition rate (%): 23.4%
  Net weight variation (g): 6.92 ± 2.65∘∘ g
  Tumor weight: 0.42 ± 0.60 g
H22 liver cancer model; 80 mg/kg oral once a day
  Liver transfer rate (%): 0%
  Survival rate (%): 100%
  Net weight variation (g): 7.78 ± 3.72∘∘ g
  Tumor weight: 0.32 ± 0.43 g
H22 liver cancer model; 80 mg/kg oral once a day, 80 mg/kg
  Tumor inhibition rate (%): > 40% and 41.1%
H22 liver cancer model; 240 mg/kg oral once a day
  Liver transfer rate (%): 0%
  Survival rate (%): 100%
  Tumor weight: 0.19 ± 0.18 g
H22 liver cancer model; 240 mg/kg oral once a day, 240 mg/kg
  Tumor inhibition rate (%): > 40% and 64.4%
H22 liver cancer model; 240 mg/kg oral once a day, weight after tumor removal vs original
  Net weight variation (g): 5.70 ± 4.05*※∘∘ g
[4]
  IC50: 14.2 µg/mL (≈ 35.7 µM)
Lewis lung cancer model; 27 mg/kg oral once a day
  Lung cancer transmission rate (%): 40%
  Survival rate (%): 100%
  Tumor inhibition rate (%): 15.76%
  Net weight variation (g): −0.36 ± 1.33**※※ g
  Tumor weight: 1.42 ± 0.94 g
Lewis lung cancer model; 80 mg/kg oral once a day
  Lung cancer transmission rate (%): 50%
  Survival rate (%): 100%
  Tumor inhibition rate (%): 28.39%
  Net weight variation (g): −0.95 ± 1.30**※※ g
  Tumor weight: 1.21 ± 0.26 g
Lewis lung cancer model; 240 mg/kg oral once a day
  Lung cancer transmission rate (%): 30%
  Survival rate (%): 100%
  Tumor inhibition rate (%): 44.59%
  Net weight variation (g): −0.61 ± 1.36**※※ g
  Tumor weight: 0.93 ± 0.45 g

## O=P1(N(CCCl)CCCl)NCCCO1 (centres unmarked) [CTX, cyclophosphamide, reference compound]
H22 liver cancer model; 20 mg/kg oral once a day
  Liver transfer rate (%): 0%
  Survival rate (%): 100%
  Tumor inhibition rate (%): 52.9%
  Net weight variation (g): 1.73 ± 2.73**※※ g
  Tumor weight: 0.25 ± 0.21 g
Lewis lung cancer model; 20 mg/kg oral once a day
  Lung cancer transmission rate (%): 20%
  Survival rate (%): 100%
  Tumor inhibition rate (%): 46.29%
  Net weight variation (g): −0.94 ± 1.03**※※ g
  Tumor weight: 0.90 ± 0.39 g
